The nature of test [1]: Brain infarct size after MCAO. Conditions: systemic propranolol or 6-OHDA (FIG. 36). Format: in vivo, mice.
The format of test [2] is in vivo. The following applies: post-ischemic Cxcr6gfp/+ mice (FIG. 37).
Method: Body temperature was maintained at 37° C. using a heating pad and temperature regulator with rectal probe. Mice were randomly divided into 2 groups: (i) sham-operated, and (ii) MCAO-operated. All surgical instruments were sterilized before the surgery. Before any incision, the area was swabbed with ethanol. To induce MCAO, a 10-mm incision was made on the right-hand side of the neck. Then, the common carotid artery, external carotid artery, and internal carotid artery were dissected free. The external carotid artery was further dissected distally, then coagulated and cut to serve as a stump. After applying temporary clamps at the common carotid artery and internal carotid artery, a monofilament with a silicon coating diameter of 0.21-0.23 mm (Doccol Corporation, Redlands, Calif., USA) was inserted into the stump of the external carotid artery. The monofilament then advanced a defined distance (12 mm) so that the distal end of the monofilament came to rest across the origin of the MCA. The stump of external carotid artery was tied off. The wound on the neck of the mouse was sutured and the mouse was then transferred onto a heat pad to maintain its body temperature at 37° C. After 30 mins of occlusion, the monofilament was withdrawn to allow reperfusion to occur. The animal then recovered from the anaesthesia. […]
For the next test, the system named is post-stroke infections. Kind of test: Bacteriological analysis (CFU) of blood, lungs, liver and spleen after MCAO. Format: in vivo, mice. Conditions: for bacterial infections at 24 h after MCAO: wild-type mice receiving propranolol or 6-OHDA (FIGS. 44A-44D). The protocol:
Mice underwent the mid-cerebral artery occlusion (MCAO) model of cerebral ischemia-reperfusion injury as previously described (Connolly, Jr. et al., 1996; Wong et al., 2008). Male mice of 8-12 weeks old were anesthetized by intraperitoneal injection of a mixture of 10 mg/kg xylazine hydrochloride (MTC Pharmaceuticals, Cambridge, ON) and 200 mg/kg ketamine hydrochloride (Rogar/STB, London, ON). Body temperature was maintained at 37° C. using a heating pad and temperature regulator with rectal probe. Mice were randomly divided into 2 groups: (i) sham-operated, and (ii) MCAO-operated. All surgical instruments were sterilized before the surgery. Before any incision, the area was swabbed with ethanol. To induce MCAO, a 10-mm incision was made on the right-hand side of the neck. Then, the common carotid artery, external carotid artery, and internal carotid artery were dissected free. The external carotid artery was further dissected distally, then coagulated and cut to serve as a stump. After applying temporary clamps at the common carotid artery and internal carotid artery, a monofilament with a silicon coating diameter of 0.21-0.23 mm (Doccol Corporation, Redlands, Calif., USA) was inserted into the stump of the external carotid artery. The monofilament then advanced a defined distance (12 mm) so that the distal end of the monofilament came to rest across the origin of the MCA. The stump of external carotid artery was tied off. The wound on the neck of the mouse was sutured and the mouse was then transferred onto a heat pad to maintain its body temperature at 37° C. After 30 mins of occlusion, the monofilament was withdrawn to allow reperfusion to occur. The animal then recovered from the anaesthesia. Rehydration of the mice was performed every 4 h with a subcutaneous injection of electrolytes and glucose. Food pellets softened with water were placed in the cage after surgery as the mice recovered, and access to water was provided. Sham-operated animals were subjected to the initial anaesthetic and neck incision only. The animals were then allowed to recover from anaesthetic. All animals were put onto a 37° C. heat pad, post-surgery, to recover from anaesthesia until euthanized.
The anaesthetized mice from Example 1 were washed with 70% ethanol under sterile conditions. Blood was collected by cardiac puncture. The lungs, liver and spleen were removed after thoracotomy and homogenized. For determination of colony forming units (CFU), 10 μl of tissue homogenate or blood was serially diluted, plated onto brain heart infusion (BHI) agar plates supplemented with 5% sheep blood (Daylnn Biologicals, Alberta, Canada), incubated at 37° C. for 18 h, and bacterial colonies were counted.
The anaesthetized mice from Example 7 were washed with 70% ethanol under sterile conditions. Blood was collected by cardiac puncture. The lungs, liver and spleen were removed after thoracotomy and homogenized. For determination of colony forming units (CFU), 10 μl of tissue homogenate or blood was serially diluted, plated onto brain heart infusion (BHI) agar plates supplemented with 5% sheep blood (Daylnn Biologicals, Alberta, Canada), incubated at 37° C. for 18 h, and bacterial colonies were counted.

The next test deals with hepatic iNKT cells. Description: Spinning disk confocal intravital microscopy of the liver: crawling behaviour of GFP+ (iNKT) cells. Format: in vivo, mice. The following applies: post-ischemic Cxcr6gfp/+ mice 24 h after MCAO; for iNKT cell phenotype (cessation of crawling) induced by MCAO: propranolol 30 mg/kg at 4 and 8 h after MCAO, 6-OHDA 250 mg/kg i.p. 3 days prior (FIGS. 32-34). The procedure: Murine liver intravital microscopy was performed as taught by Wong et al. (1997, A minimal role for selectins in the recruitment of leukocytes into the inflamed liver microvasculature. J. Clin. Invest. 99: 2782). Briefly, the tail vein of the anesthetized mice was cannulated to administer fluorescently labeled antibodies and/or additional anesthetic as required. Body temperature was maintained at 37° C. using an infrared heat lamp. Mice were placed in a right lateral position on an adjustable microscope stage. A lateral abdominal incision along the costal margin to the midaxillary line was made to exteriorize the liver, and all exposed tissues were moistened with saline-soaked gauze to prevent dehydration.
Cells were tracked using ImageJ software version 1.45 (NIH at http://rsb.info.nih.gov/ij/). Time-lapse videos exported from Volocity were imported as .mov file, and then converted to 8-bit grayscale. Fluorescent cells were adjusted using threshold control, and noise particles less than 2.0 pixels were removed by filter. Movement of cells was measured using manual tracking, and was calculated for each track using ImageJ output spreadsheets. The cell velocity was expressed in distance (μm) per time (min). 30-40 tracks from 10 mins videos of each animal in each experimental group were analyzed.
Excised livers were prepared for in vivo microscopic observation. Briefly, the liver was placed on the pedestal of an inverted microscope and the liver surface was then covered with a small piece of saline-soaked KimWipe to hold the organ in position. The liver microvasculature was visualized using a spinning-disk confocal microscopy and images were acquired with an Olympus IX81 inverted microscope using a ×10/0.40 UplanFL N objective. The microscope was equipped with a confocal light path (WaveFx, Quorum, Guelph, ON, CA) based on a modified Yokogawa CSU-10 head (Yokogawa Electric Corporation, Tokyo, Japan). Cxcr6^gfp/+ mice were used to visualize hepatic iNKT cells. Laser excitation wavelengths (Cobolt, Stockholm, Sweden) were used in rapid succession and visualized with the appropriate long-pass filters (Semrock, Rochester, N.Y.). Typical exposure time for each excitation wavelength was 300 milli-seconds. A 512×512 pixel back-thinned electron-multiplying charge-coupled device camera (C9100-13, Hamamatsu, Bridgewater, N.J.) was used for fluorescence detection. Volocity Acquisition software (Improvision) was used to drive the confocal microscope. […] Behaviors of iNKT cells in the hepatic microvasculature were assessed.
Wildtype mice underwent the MCAO procedure as previously described in Example 1. […] The crawling behaviours of crawling GFP+ cells in livers from sham-operated control mice and post-ischemic mice were observed and quantified using the methods disclosed in Example 2.

The test system of test [3] is iNKT cells. Description: In vitro noradrenalin activation of isolated iNKT cells. The class given is cell-based, mice. The protocol: After gentle agitation at 37° C. for 30 min, the concentrate was passed through a 40-μm nylon filter and washed twice with ice-cold PBS (pH 7.4) and centrifuged at 400×g for 10 min. Lymphocytes were purified on a 44%/70% Percoll gradient and were negatively selected with anti-Gr-1 (RB6-8C5; eBioscience), anti-F4/80 (BM8; eBioscience), anti-CD19 (1D3; eBioscience), and anti-CD8a (53-6.7; eBioscience) microbeads and MiniMACS column (Miltenyi Biotech) to remove neutrophils, macrophages, B cells, and CD8+ cells, respectively. A pure iNKT cell population consisting of TCRf3+ and GFP+ cells were sorted. Purity of isolated iNKT cells was >95%. iNKT cells were seeded at 5×10^5 cells into plasma-coated 6 cm clear flat glass bottom dishes and allowed to settle in DMEM containing 10% FCS for 1 h. To examine noradrenalin activation of iNKT cells in vitro, iNKT cells were either pretreated with 400 μM propranolol and then treated with 200 μM noradrenalin or the iNKT cells were subjected to 200 μM noradrenalin alone. The behavior of iNKT cells was visualized and recorded with FluoView FV1000 confocal fluorescence microscope (Olympus). The recorded images were randomized and analyzed by three blinded investigators.

Test [4] relates to iNKT cells. Kind of test: Localized noradrenalin superfusion on the liver of Cxcr6gfp/+ mice. Format: in vivo. The protocol: Alexa Fluor 647-conjugated rat anti-mouse PECAM-1 (clone 390; 1 μl) purchased from eBioscience (San Diego, Calif., USA) was mixed with the noradrenalin (5 μg; Sigma) to enable visualization of the epicentre of noradrenalin superfusion. Using intravital spinning-disk confocal microscopy, the behavior of iNKT cells was visualized and tracked in the epicentre of, and distant from the localized noradrenalin in the livers of Cxcr6^gfp/+ mice.

Test [5] has as its system intracellular IFNγ and IL-10 production. Kind of test: Intracellular cytokine analysis by flow cytometry. The class given is in vivo. The following applies: post-ischemic wild-type mice treated with propranolol (FIG. 48).
Method: For intracellular cytokine analysis, liver single cell suspensions from sham-operated and post-ischemic Cxcr6^gfp/+ mice were stained with PerCP-conjugated anti-CD69, washed with cold FWB, resuspended in Cytofix/Cytoperm (BD Bioscience) for 30 min on ice. Samples were washed in Perm/Wash (BD Bioscience) and then stained with Alexa Fluor 450-conjugated anti-IFNγ (XMG1.2, eBioscience) and PE-conjugated anti-IL-4 (11B11, BD Pharmingen) or PE-conjugated anti-IL-10 (JESS-16E3, eBioscience).
Where [6] appears, read: 5 μg, liver of Cxcr6gfp/+ mice (FIGS. 38-40).

Take `NCCc1cc(O)c(O)cc1O` [Formula 6-OHDA, 6-hydroxydopamine]: in test [1], the “infarct size in post-ischemic mice” value is reported as “did not alter”. In addition, in test [2], the “Mortality at 24 h of reperfusion” value came to 50%. The “bacterial infections at 24 h after MCAO” value with post-stroke infections is reported as “significantly reduced”. In addition, in the test on hepatic iNKT cells, the “iNKT cell phenotype (cessation of crawling) induced by MCAO” value is listed as “completely inhibited”.
As to `NC[C@H](O)c1ccc(O)c(O)c1` [noradrenaline], the “iNKT cell morphology in vitro” value in the test with iNKT cells [3] (200 μM noradrenalin alone (FIG. 41)) is “developed a pseudopod-protruding phenotype”. For the same molecule, the “crawling behavior of iNKT cells in an area of liver distant from the superfusion” value with iNKT cells [4] (5 μg (FIGS. 38-40)) was “did not alter”. For the same molecule, in the test with iNKT cells [4] (setting [6]), the “crawling iNKT cells in the epicenter of noradrenaline administration” value is on record as “Significantly fewer iNKT cells crawled” and the “pirouetting iNKT cells in the epicenter of noradrenaline administration” value is on record as “more cells adopted a pirouetting phenotype”.
As to `CC(C)NCC(O)COc1cccc2ccccc12` (stereo not shown) [propranolol], the “noradrenaline-induced behavioral change of iNKT cells in vitro” value in the test with iNKT cells [3] (pretreatment 400 μM propranolol, then 200 μM noradrenalin (FIG. 42)) is recorded as “inhibited”. For the same molecule, the “infarct size in post-ischemic mice” value in test [1] is listed as “did not alter”. In addition, the “protection from infection (bacterial loads in peripheral blood and lungs)” value in the test with post-stroke infections (post-ischemic Cd1d-/- mice (FIG. 46)) was “no protection”. Also, the “bacterial infections at 24 h after MCAO” value with post-stroke infections is “significantly reduced”. For the same molecule, in the test on hepatic iNKT cells, the “iNKT cell phenotype (cessation of crawling) induced by MCAO” value is “reversed”. The “intracellular IL-10 versus IFN-γ production” value in test [5] was “reversed the preference for intracellular IL-10 production back to an intracellular IFN-γ dominant production”.
With apyrase, the “iNKT cell arrest in response to MCAO” value with hepatic iNKT cells (treatment just prior to MCAO (FIGS. 29, 30)) is listed as “no effect”.

B1: recombinant IL-10: Recombinant IL-10 (Cedarlane), a TH2-type cytokine (protein, UniProt P18893 19-178, looked up)
Interleukin-10: SRGQYSREDNNCTHFPVGQSHMLLELRTAFSQVKTFFQTKDQLDNILLTDSLMQDFKGYLGCQALSEMIQFYLVEVMPQAEKHGPEIKEHLNSLGEKLKTLRMRLRRCHRFLPCENKSKAVEQVKSDFNKLQDQGVYKAMNEFDIFINCIEAYMMIKMKS
Consider B1, for which the “stroke-induced lung infections (bacterial load in the lungs)” value in the test on post-stroke infections (wild-type mice pretreated i.v. 1 h prior to MCAO, 1 μg/mouse (FIG. 22)) is recorded as “increased”.

(Values after US20140329766A1, “Prophylactic Compositions for Management of Microbial Infections in Patients with Brain Injury” (UTI LIMITED PARTNERSHIP, priority 2011, published 2014).)
